This is an account of results in patent US10292991B2, “Small molecule therapeutic compounds that reduce the incidence of intracerebral hemorrhage and brain microhemorrhages” (St. Michaels Hospital, priority 2016, dated 2019).

Structures can show the parent of a compound that is named as a salt.

In data set [1] the test system is CCM3 (Ccm3) mRNA. Briefly: qRT-PCR of CCM3 mRNA in atorvastatin-treated zebrafish larvae. Type of data set: in vivo, zebrafish (Danio rerio). The note with it: 1 μmol/L atorvastatin alone. As for the experimental part:
qRT-PCR was used to assess relative expression of selected genes (an average of two biological trial and three technical replicates and each trial is a pool of 60 larvae/treatment), using β-actin as the housekeeping gene control. 3 dpf, Tg(Flk:GFP; Gata:dsRed) zebrafish larvae were used for RNA extraction and cDNA synthesis. Atorvastatin and drug treatment were performed as previously mentioned in drug screening. Total RNA was extracted from these larvae (a pool of 50-60 larvae/treatment) using the RNeasy extraction kit (Qiagen, Mississauga, ON, CAN) and treated with DNase. The concentration of total RNA was determined spectrophotometrically at 260/280 nm using a NanoDrop™ spectrophotometer. First-strand cDNA was synthesized from 1 μg of total RNA using random hexamer primers.
In each case, forward primer is shown on the top and reverse primer on the bottom.
PCR was carried out in a 20 μl total volume and included 1×PCR buffer, 1.25 mM MgCl2, 0.25 mM dNTP, 1 U Taq polymerase, 0.5 μmol/L forward, and reverse primers and 1 μl cDNA.
In general terms: In qPCR the cycle at which signal appears reflects the starting amount.

The subject of data set [2] is mice treated with LPS. Briefly: Atorvastatin plus LPS in mice: mortality and large hemorrhages. It is filed as in vivo. As to conditions: for mortality: n=5. The text has this: While the present invention has been described with reference to the specific embodiments thereof it should be understood by those skilled in the art that various changes may be made and equivalents may be substituted without departing from the true spirit and scope of the invention. In addition, many modifications may be made to adopt a particular situation, material, composition of matter, process, process step or steps, to the objective spirit and scope of the present invention. All such modifications are intended to be within the scope of the claims appended hereto.

Broadly, the mortality is the share of the test organisms that died. Turning to `CC(C)c1c(C(=O)Nc2ccccc2)c(-c2ccccc2)c(-c2ccc(F)cc2)n1CC[C@@H](O)C[C@@H](O)CC(=O)O` [Atorvastatin, atorvastatin calcium salt], the “CCM3 transcription level (qRT-PCR) after inducing hemorrhage” value in data set [1] is “decrease”. For the same compound, the mortality is listed as 100% in data set [2] (atorvastatin 50 mg/kg in addition to LPS 5 mg/kg, 24 hours after treatments) and “did not cause any mortality” in data set [2] (statin alone, 24 hours). In addition, the “Number of large hemorrhages caused by LPS” value in data set [2] (mouse, in vivo) was “significantly increased”.
